Data on five molecules can be found in publication PMC8712300 (European Journal of Nuclear Medicine and Molecular Imaging, 2021).

The target of data set [1] is central benzodiazepine receptor (CBR). To be noted: read-out: Ki CBR; displacement of [^3H]flunitrazepam, rat cerebral cortex.
Protocol: (§1) The binding assay was performed following a previously published procedure [22], with slight modifications.
Data set [2] concerns the target T1, TSPO (Rattus norvegicus, UniProt P16257).
In data set [3] the target is T1, TSPO. This is another data set of the same source.
Description: Male Sprague–Dawley rats (7–8 weeks old, Orientbio Inc.) were used to create rat models of neuroinflammation and ischemic stroke (n = 4 for each model). […] An ischemic stroke rat model was generated via 60-min occlusion of the right middle cerebral artery (MCAO), as previously described [27]. […] In the case of ischemic stroke model, rats were anesthetized with 5% isoflurane in the presence of 30% nitrous oxide and 70% oxygen, and then were under anesthesia with 2% isoflurane in the presence of 30% nitrous oxide and 70% oxygen during MCAO surgery.
The PET imaging study was performed using a dedicated animal PET/CT scanner (NanoPET/CT; Mediso Inc., Budapest, Hungary) with a 10-cm axial field-of-view (FOV) and a 12-cm transaxial FOV. […]
(§2) The volumes of interest (VOIs) were drawn around the peak PET activity on the ipsilateral region in a coronal PET/CT slice, and symmetrically pasted into the contralateral side on the same slice to yield a contralateral VOI of identical volume and shape. […] Decay-corrected radioactivity in the VOI was expressed as the standardized uptake value (SUV), which was normalized to the injected radioactivity and body weight of the rat using PMOD software version 3.6 (PMOD Technologies Ltd., Zurich, Switzerland). […] The binding potential (BPND) was also calculated as a quantitative value, which represented the receptor binding with the radioligand. […]
For data set [4] the following is noted: 37 °C, 120 min.
Protocol: Aliquots (0.2 mL) were collected at 0, 15, 30, 60, and 120 min and mixed with acetonitrile (0.2 mL), and then centrifuged at 3500 rpm for 5 min. The resulting supernatants were analyzed using a radio-TLC scanner with the developing solvent (50% ethyl acetate-hexane).
Data set [5] is described as follows: in vitro. Conditions: human, human plasma.
Protocol: (§3) Plasma protein binding (PPB) was measured using two plasma samples obtained from five rats and a healthy volunteer. […] The mixtures were transferred to the Amicon® Ultra 30 K device (Merck Millipore, USA), and centrifuged at 12,000 rpm for 15 min. […] The plasma-free fraction (fP) was calculated as fp = (APfree /APtotal)/(ASfree/AStotal).
Test in data set [6]: not given
The source holds these as a separate data set.

The nature of another data set: physchem. Conditions: n-octanol/PBS.
For data set [7] the following is noted: normal mice, PET 90 min.
Protocol: Normal male C57BL/6 mice (n = 4, 6–7 weeks old, Orientbio Inc.) were used to perform in vivo organ distribution and dosimetry studies (see methodological details in the SI).
All the mice (n = 4) were anesthetized with 2% isoflurane. […] The CT images were used to draw region of interest (ROI) on the following organs: the brain, heart, lung, liver, stomach, urinary bladder, intestine kidneys and adrenals. […] The accumulated activity for each organ were calculated by using the area under curve (AUC) of TACs.
Data set [8] concerns the target T1, TSPO. The source holds these as a separate data set.
Protocol: Male Sprague–Dawley rats (7–8 weeks old, Orientbio Inc.) were used to create rat models of neuroinflammation and ischemic stroke (n = 4 for each model). An acute neuroinflammation rat model was generated by injecting lipopolysaccharides (LPS, 50 μg) into the right striatum of rat brain according to our previous protocol [26]. […] In the case of LPS-induced neuroinflammatory model, rats were anesthetized with ketamine hydrochloride (50 mg/kg) and xylazine hydrochloride (0.2 mg/kg) before LPS injection.
The PET imaging study was performed using a dedicated animal PET/CT scanner (NanoPET/CT; Mediso Inc., Budapest, Hungary) with a 10-cm axial field-of-view (FOV) and a 12-cm transaxial FOV. Before PET imaging, the rats were anesthetized with 2% isoflurane. […]
as §2
The conditions of data set [9]: n-octanol/PBS pH 7.4, individual replicates.
Protocol: (§4) After vortexing for 1 min, each tube was placed on a table at 25 °C for 3 min. Samples of each phase (100 μL) were counted for radioactivity using a gamma-counter. Log D is expressed as the logarithm of the ratio of the count of n-octanol to that of PBS.
The nature of data set [10]: in vitro. To be noted: rat, rat plasma.
Protocol: as §3
The target of the next data set is TSPO-mutant A147T (LAB) (Homo sapiens, UniProt P30536). The data set is described as follows: biochemical.
Another data set concerns the target TSPO-WT (HAB) (Homo sapiens, UniProt P30536, T147A). Nature of the data set: biochemical.
For data set [11], the target named is T1, TSPO. The data set is described as follows: biochemical.
Protocol: as §1

Several values for one entry are separate records, joined by “and”; a condition that tells them apart may be missing. Equal entries are not always repeated. Where two headings read alike, the source gives them in different places. Some results are limits rather than exact numbers.

T1 sequence (P16257 whole entry): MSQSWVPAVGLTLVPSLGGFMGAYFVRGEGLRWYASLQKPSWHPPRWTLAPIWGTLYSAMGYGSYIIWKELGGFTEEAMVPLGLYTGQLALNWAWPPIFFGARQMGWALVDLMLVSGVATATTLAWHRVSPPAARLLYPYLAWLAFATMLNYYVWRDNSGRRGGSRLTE
Chain of TSPO-WT (HAB) (P30536 whole entry T147A): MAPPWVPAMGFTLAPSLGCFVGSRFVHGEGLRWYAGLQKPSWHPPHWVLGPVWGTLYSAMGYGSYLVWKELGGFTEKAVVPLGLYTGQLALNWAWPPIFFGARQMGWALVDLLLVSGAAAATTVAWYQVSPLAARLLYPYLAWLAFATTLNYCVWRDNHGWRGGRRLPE
Chain of TSPO-mutant A147T (LAB) (P30536 whole entry, stated change not applied): as the sequence (P30536 whole entry T147A) above, with A147T counted along it
Protocol for physchem: as §4

As usually defined, the Ki is the dissociation constant of the complex between target and ligand, obtained from inhibition or displacement. Take `CCC(C)N(C)C(=O)c1cc2ccccc2c(-c2ccccc2Cl)n1` (stereo not drawn) [PK 11195]: the Ki in data set [1] is greater than 100 µM. Further, the “effect on [^18F]BS224 radioactivity in brain slices (blocking)” value on TSPO [2] is “significant reduction of radioactivity”.
As to `CN1C(=O)CN=C(c2ccccc2F)c2cc([N+](=O)[O-])ccc21` [Flunitrazepam], the Ki in data set [1] stood at 0.0062 ± 0.0001 µM.
As usually defined, the fraction unbound is the share of the substance not bound to proteins or other matrix. The low end stands for extensive binding, the high end for weak binding. As usually defined, the logD is lipophilicity at a set pH, counting ionised and neutral species. Higher therefore signals higher lipophilicity. For the molecule `CCCN(CCC)C(=O)Cc1c(-c2ccc([18F])cc2)nc2c(Cl)cc(Cl)cn12` [[^18F]BS224, 2-(-2-(4-[^18F]fluorophenyl)-6,8-dichloro-imidazo[1,2-a]pyridin-3-yl)-N,N-dipropylacetamide], the “Effective dose (estimated whole-body human)” value (extrapolated from normal mouse data) is 5.18 μSv/MBq and 05.18 ± 1.03 μSv/MBq. Further, for the setting “from normal mouse data”, the “Estimated Human Absorbed Dose, Adrenals” value is listed as 09.66 ± 2.52 µGy/MBq; the “Estimated Human Absorbed Dose, Brain” value was 04.87 ± 0.90 µGy/MBq; the “Estimated Human Absorbed Dose, Breast” value was 02.28 ± 0.60 µGy/MBq; the “Estimated Human Absorbed Dose, Colon wall” value was 02.79 ± 0.55 µGy/MBq. Under “from normal mouse data”, the “Estimated Human Absorbed Dose, ET region” value was 00.75 ± 0.14 µGy/MBq; the “Estimated Human Absorbed Dose, Endosteum (bone surface)” value is given as 00.91 ± 0.19 µGy/MBq; the “Estimated Human Absorbed Dose, Eye lenses” value is recorded as 00.52 ± 0.09 µGy/MBq; the “Estimated Human Absorbed Dose, Gallbladder wall” value is 14.98 ± 3.89 µGy/MBq. In addition, under “from normal mouse data”, the “Estimated Human Absorbed Dose, Heart wall” value is on record as 10.54 ± 3.14 µGy/MBq; the “Estimated Human Absorbed Dose, Kidneys” value is listed as 26.23 ± 8.91 µGy/MBq; the “Estimated Human Absorbed Dose, Liver” value is listed as 28.88 ± 7.70 µGy/MBq; the “Estimated Human Absorbed Dose, Lung” value is on record as 07.99 ± 2.42 µGy/MBq. Besides, under “from normal mouse data”, the “Estimated Human Absorbed Dose, Lymphatic nodes” value is 02.60 ± 0.55 µGy/MBq; the “Estimated Human Absorbed Dose, Muscle” value was 00.77 ± 0.17 µGy/MBq; the “Estimated Human Absorbed Dose, Oesophagus” value is reported as 03.90 ± 1.04 µGy/MBq; the “Estimated Human Absorbed Dose, Oral mucosa” value is 00.50 ± 0.09 µGy/MBq. Further, for the setting “from normal mouse data”, the “Estimated Human Absorbed Dose, Pancreas” value is recorded as 07.79 ± 1.88 µGy/MBq; the “Estimated Human Absorbed Dose, Prostate” value is recorded as 00.43 ± 0.05 µGy/MBq; the “Estimated Human Absorbed Dose, Red (active) bone marrow” value is recorded as 02.01 ± 0.45 µGy/MBq; the “Estimated Human Absorbed Dose, Salivary glands” value is on record as 00.49 ± 0.09 µGy/MBq. For the same molecule, under “from normal mouse data”, the “Estimated Human Absorbed Dose, Skin” value is listed as 00.54 ± 0.12 µGy/MBq; the “Estimated Human Absorbed Dose, Small intestine wall” value is recorded as 07.30 ± 0.29 µGy/MBq; the “Estimated Human Absorbed Dose, Spleen” value is listed as 02.90 ± 0.71 µGy/MBq; the “Estimated Human Absorbed Dose, Stomach wall” value is 09.06 ± 3.12 µGy/MBq. For the setting “from normal mouse data”, the “Estimated Human Absorbed Dose, Testes” value is 00.06 ± 0.00 µGy/MBq; the “Estimated Human Absorbed Dose, Thymus” value is 01.88 ± 0.52 µGy/MBq; the “Estimated Human Absorbed Dose, Thyroid” value is reported as 00.95 ± 0.25 µGy/MBq; the “Estimated Human Absorbed Dose, Urinary bladder wall” value is reported as 09.46 ± 2.73 µGy/MBq. Further, the skull uptake result on TSPO [3] (ischemic stroke model PET) is reported as “not observed”. In addition, the BPND at TSPO [3] (ischemic stroke model, SRTM, contralateral side as reference) was 1.57 ± 0.37. Moreover, the “parent compound remained intact in human serum” value in data set [4] is given as “over 99%”. In the data set “in vitro [5]”, this molecule registered a fraction unbound at 10 min, 1.19 MBq/mL of 0.049 ± 0.005. In addition, in data set [6] (30 min), the “% in heart, Parent” value is recorded as “Intact”; the “% in kidneys, Parent” value is “Intact”; the “% in liver, Parent” value was 73.6% and 73.6 ± 5.9%; the “% in lung, Parent” value was “Intact”. Also, the “% in plasma, Parent” value in [6] (30 min) came to 90.7 ± 0.8%. Further, the “% in brain, Parent” value in data set [6] (30 min after i.v. injection, rat) is “Intact”. Also, in data set [6] (90 min), the “% in heart, Parent” value is “Intact”; the “% in kidneys, Parent” value is reported as “Intact”; the “% in liver, Parent” value was 53.1% and 53.1 ± 2.7%; the “% in lung, Parent” value is given as “Intact”. The “% in plasma, Parent” value in [6] (90 min) is listed as 69.2 ± 2.9%. Also, the “% in brain, Parent” value in data set [6] (90 min after i.v. injection, rat) is “Intact”. In data set [6] (gamma counting, rat), the “radioactivity in the femur (in vivo defluorination)” value is listed as “no radioactivity could be detected”. This molecule returned a pH-dependent lipophilicity (logD) in “physchem” (pH 7.4, Log D (single measurements 1-5), n-octanol/PBS pH 7.4, individual replicates) of 2.78. Further, in the data set “physchem” (pH 7.4, Log D, n-octanol/PBS pH 7.4, 25 °C, average n = 5), the logD amounted to 2.78 ± 0.04. Besides, in [7], the “AUC Brain” value is recorded as 201.75±19.25 %ID/g min, the “AUC Heart” value is recorded as 442.73±84.59 %ID/g min, the “AUC Intestine” value was found to be 250.45±7.71 %ID/g min and the “AUC Kidney” value worked out at 1345.08±260.65 %ID/g min. In data set [7], the “AUC Liver” value worked out at 1102.68±140.38 %ID/g min, the “AUC Lung” value came to 403.48±82.21 %ID/g min, the “AUC Stomach” value was determined as 198.98±53.18 %ID/g min and the “AUC Urinary Bladder” value stood at 91.44±21.23 %ID/g min. Moreover, in [7], the “Cmax Brain” value is 5.78±1.51 %ID/g, the “Cmax Heart” value is reported as 20.81±8.05 %ID/g, the “Cmax Intestine” value amounted to 3.66±0.19 %ID/g and the “Cmax Kidney” value was found to be 16.33±3.08 %ID/g. In data set [7], the “Cmax Liver” value was determined as 16.21±1.95 %ID/g, the “Cmax Lung” value is given as 14.38±5.88 %ID/g, the “Cmax Stomach” value is listed as 3.12±0.81 %ID/g and the “Cmax Urinary Bladder” value amounted to 1.35±0.22 %ID/g. In addition, in data set [7], the “Tmax Brain” value worked out at 1.83 ± 0.68 min, the “Tmax Heart” value is 0.83 ± 0.20 min, the “Tmax Intestine” value is 38.96 ± 21.39 min and the “Tmax Kidney” value came to 64.38 ± 16.21 min. Further, in data set [7], the “Tmax Liver” value is 38.29 ± 20.60 min, the “Tmax Lung” value came to 0.71 ± 0.24 min, the “Tmax Stomach” value worked out at 41.88 ± 23.30 min and the “Tmax Urinary Bladder” value stood at 45.94 ± 14.36 min. For the same molecule, the skull uptake result on TSPO [8] (LPS model PET) was “not observed”. Besides, the BPND on TSPO [8] (LPS model, SRTM, contralateral side as reference) is reported as 1.43 ± 0.17. Besides, the “Log D (single measurements 1-5)” value in [9] is 2.754 and 2.735. In “in vitro [10]”, this molecule had a fraction unbound at 10 min, 1.19 MBq/mL of 0.064 ± 0.003.
In general, IC50 refers to the concentration needed to halve the response being measured. Higher therefore signals lower potency. As to `CCCN(CCC)C(=O)Cc1c(-c2ccc(F)cc2)nc2c(Cl)cc(Cl)cn12` [BS224], the values for the IC50 on TSPO-mutant A147T (LAB) and against TSPO-WT (HAB) were 450 ± 20 nM and 590 ± 40 nM, respectively. Further, the inhibitory constant (Ki) was greater than 100 µM in [1] and 0.51 ± 0.03 nM on TSPO [11].
With `CCCN(CCC)C(=O)Cc1c(-c2ccc(OCCF)cc2)nc2c(Cl)cc(Cl)cn12` [CB251], in [1], the Ki is greater than 100 µM.
